According to PMC4630399, “Charge-Based Inhibitors of Amylin Fibrillization and Toxicity” (Journal of Diabetes Research, 2015):
Entries after “also recorded” stand apart in the source; their conditions may differ. Positions of bridges follow the written chain, without caps; N, C: chain ends. Residues, ends and D or L forms follow the SMILES beside them.

Key:
[1] = ThT assay of fibrillization kinetics, peptides alone; assay type: physicochemical
Description: (§1) The time course of fibrillization in solution was monitored using 100–200 μL amylin samples, contained in white polystyrene clear bottom 96-well plates (Corning Inc., Corning, NY). Plates were covered with a clear polyester sealing tape (Fisher Scientific, Agawam, MA) to prevent evaporation. Stock solutions of 1.1 mM WT-amylin and inhibitor peptides were prepared in 100% DMSO, which dissolves and disaggregates amylin fibrils, and were stored at −80°C when not in use. Starting from the 1.1 mM stock solutions in 100% DMSO, samples for fibrillization reactions were prepared to contain 20 μM amylin and 10 μM ultrapure ThT, in 20 mM sodium phosphate buffer, pH 7.4, and a final DMSO concentration of 2% (v/v). For experiments using larger 400 μM concentrations of Arg-2 and Mem-T, the solutions were prepared by diluting 100% DMSO stock solutions of 20 mM peptide to a final DMSO concentration of 2% (v/v). Amylin was the last component added to the samples for the kinetic reactions, in order to reduce the dead time for the experiments. The plates were incubated at 25°C without agitation. Fluorescence intensity was recorded at 2 min intervals with excitation at 440 nm and emission at 490 nm on a Fluoroskan Ascent 2.5 fluorescence plate reader. Fibrillization reactions for the peptides alone were performed in triplicate and for analog-peptide inhibition of WT-amylin in duplicate, to estimate experimental uncertainties in kinetic parameters.

[2] = system: WT-amylin cytotoxicity towards MIN6 mouse model of pancreatic β-cells; assay: Protection of MIN6 cells against WT-amylin cytotoxicity (Alamar Blue)
Description: The stock solutions were diluted with FBS-free DMEM and sonicated continuously for 5 min at 75% amplitude before use. FBS was subsequently added to a concentration of 15% (v/v), giving final amylin concentrations of 40, 80, and 160 μM. The final DMSO concentration for all cytotoxicity experiments was 1% (v/v).
Cytotoxicity was measured using the mouse insulinoma 6 (MIN6) cell line model of β-pancreatic cells, which were a gift from Dr. Anil Rustgi (University of Pennsylvania). Cells were seeded at a density of 20,000 per 100 μL in black clear-bottom 96-well plates. The cells were grown in DMEM with 15% FBS, 25 mM glucose, 2 mM L-glutamine, […] sodium pyruvate, 55 μM β-mercaptoethanol, 1000 units/mL penicillin, and 100 μg/mL streptomycin, for 20 h at 37°C in a humidified incubator with 5% CO2. […] The cells were incubated for another 24 h followed by the addition of 10% (v/v) of the redox indicator dye Alamar Blue at the concentration supplied by the manufacturer (Invitrogen). Fluorescence, due to the reduction of Alamar Blue by viable cells, was measured after 6 h, using excitation and emission wavelengths of 544 and 590 nm, respectively. Cell viability was calculated from the ratio of Alamar Blue fluorescence in treated to untreated cells. Uncertainties were calculated as the SEMs of triplicate measurements.

[3] = target: T1, WT-amylin (Homo sapiens, UniProt P10997); assay: ThT assay, inhibition of WT-amylin fibrillization by analogs added in trans; assay type: biochemical; design: purchased Biopeptide (San Diego, CA); host or cells: solid-phase synthesis; settings: for reduction of WT-amylin fibril elongation rate: analog 0.001 to 120 μM; for reduction of WT-amylin elongation rate: Arg-1 between 0 and 200 μM
T1 sequence (P10997 34-70 limits assumed): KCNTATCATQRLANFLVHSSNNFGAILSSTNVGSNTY
Description: as §1, with “Starting from the 1.1 mM stock solutions in 100% DMSO, samples for fibrillization reactions were prepared to contain 20 μM amylin and 10 μM ultrapure ThT, in 20 mM sodium phosphate buffer, pH 7.4, and a final DMSO concentration of 2% (v/v).” left out

[4] = TEM of aggregates formed by peptides alone; assay type: physicochemical; settings: 80 μM peptide, 2 days, 20 mM phosphate pH 7.4, 37°C, no agitation
Description: (§2) Samples containing 80 μM concentrations of WT-amylin and the three analogs were incubated without agitation at a temperature of 37°C in 20 mM phosphate buffer (pH 7.4). For the inhibition reactions, samples contained WT-amylin at an 80 μM concentration, together with 160 μM of Arg-1, Arg-2, or Mem-T analogs. Aliquots from the reactions were removed after 2 days for TEM imaging. The aliquots were blotted onto carbon-coated 400-mesh Maxtaform copper grids (Ted Pella Inc. Redding, CA) for 1–3 min, followed by negative staining with 1% uranyl acetate. TEM images were recorded on an FEI Tecnai G^2 Spirit BioTwin transmission electron microscope equipped with an AMT XR-40 camera.

[5] = target: T1, WT-amylin; assay: TEM of WT-amylin fibrils formed in presence of inhibitor peptides; assay type: biochemical; design: purchased Biopeptide (San Diego, CA); host or cells: solid-phase synthesis; settings: 80 μM WT-amylin with 160 μM analog, 20 mM sodium phosphate pH 7.4, 1% DMSO, 37°C, 24 h
Description: as §2
Figure 8 TEM images of fibrils formed from 80 μM WT amylin in the presence or absence of inhibitor peptides. (a) WT amylin alone, (b) with 160 μM Arg-1, (c) with 160 μM Arg-2, and (d) with 160 μM Mem-T. Aliquots were removed for TEM imaging 24 h after the fibrillization reactions were started. Reactions were carried out in 20 mM sodium phosphate (pH 7.4), 1% DMSO (v/v), at 37°C.

[6] = 20 μM peptide, 150 mM NaCl, pH 7.4, 25°C

SMILES | increase of lag time compared to WT-amylin ([1]; 20 μM peptide, 150 mM NaCl) | reduction of elongation rate compared to WT-amylin ([1]; 20 μM peptide, 150 mM NaCl) | fibrillization detected (ThT) [1, 6] | fibrillization lag time ([1]; 20 μM peptide, 150 mM NaCl, 20 mM sodium phosphate pH 7.4, 10 μM ThT, 2% DMSO, 25°C, no agitation, fluorescence ex 440/em 490 nm, triplicate) | fibril elongation rate ([1]; 20 μM peptide, 150 mM NaCl, 20 mM sodium phosphate pH 7.4, 10 μM ThT, 2% DMSO, 25°C, no agitation, triplicate) | protection against WT-amylin cytotoxicity (overall) ([2]; MIN6 cells, 80 μM WT-amylin, up to 2 : 1 inhibitor : WT-amylin) | IC50 ([2]; mouse, 24 h) | effect on WT-amylin fibrillization lag time ([3]; 20 μM WT-amylin, 150 mM NaCl) | effect on steady-state fluorescence plateau ([3]; 20 μM WT-amylin, 150 mM NaCl) | reduction of WT-amylin fibril elongation rate ([3]; 20 μM WT-amylin, 150 mM NaCl) | reduction of WT-amylin elongation rate ([3]; 20 μM WT-amylin, 150 mM NaCl) | reduction of WT-amylin elongation rate ([3]; 20 μM WT-amylin, absence of salt) | effect on WT-amylin lag times, elongation rates and fluorescence plateaus ([3]; 80 μM WT-amylin, increasing Arg-1, 150 mM NaCl) | aggregate morphology by TEM [4] | TEM of WT-amylin fibrils formed with inhibitor [5] | fibrillization detected (ThT) ([1]; 400 μM peptide, pH 7.4, 2% DMSO, 25°C) | fibrillization of peptide on its own (overall) ([1]; ThT, all conditions tested) | protection against WT-amylin cytotoxicity ([2]; 160 μM analog : 80 μM WT-amylin (2 : 1)) | salt dependence of inhibition of elongation rate ([3]; 20 μM WT-amylin, varying NaCl)
CC[C@H](C)[C@H](NC(=O)[C@H](C)NC(=O)CNC(=O)[C@H](Cc1ccccc1)NC(=O)[C@H](CC(N)=O)NC(=O)[C@H](CC(N)=O)NC(=O)[C@H](CO)NC(=O)[C@H](CO)NC(=O)[C@H](Cc1c[nH]cn1)NC(=O)[C@H](CCCNC(=N)N)NC(=O)[C@H](CCCNC(=N)N)NC(=O)[C@H](CCCNC(=N)N)NC(=O)[C@H](CCCNC(=N)N)NC(=O)[C@H](C)NC(=O)[C@H](CC(C)C)NC(=O)[C@H](CCCNC(=N)N)NC(=O)[C@H](CCC(N)=O)NC(=O)[C@@H](NC(=O)[C@H](C)NC(=O)[C@@H]1CSSC[C@H](NC(=O)[C@@H](N)CCCCN)C(=O)N[C@@H](CC(N)=O)C(=O)N[C@@H]([C@@H](C)O)C(=O)N[C@@H](C)C(=O)N[C@@H]([C@@H](C)O)C(=O)N1)[C@@H](C)O)C(=O)N[C@@H](CC(C)C)C(=O)N[C@@H](CO)C(=O)N[C@@H](CO)C(=O)N[C@H](C(=O)N[C@@H](CC(N)=O)C(=O)N[C@H](C(=O)NCC(=O)N[C@@H](CO)C(=O)N[C@@H](CC(N)=O)C(=O)N[C@H](C(=O)N[C@@H](Cc1ccc(O)cc1)C(N)=O)[C@@H](C)O)C(C)C)[C@@H](C)O [Arg-1] (H-KCNTATCATQRLARRRRHSSNNFGAILSSTNVGSNTY-NH2; disulfide 2-7 (inferred); N-terminus assumed) | about 2 fold | about 30% | detect fibrillization | 210 min | 0.0068 min⁻¹ | protects against WT-amylin cytotoxicity | ~50 µM | no effects on the lag times within experimental uncertainty | reduction in the steady-state fluorescence plateaus; also recorded: only observed to decrease with the Arg-1 analog | 8–10 fold | 7 fold | 4 fold | increases in lag times with increasing Arg-1 concentration as well as decreases in elongation rates and steady-state fluorescence plateaus | formed much fewer fibrils; also recorded: formed a larger proportion of short fibrils than WT-amylin; also recorded: fewer fibrils with shorter lengths | somewhat fewer fibrils and a greater amount of short fibrils |  |  |  | 
CC(C)C[C@H](NC(=O)[C@H](CCCNC(=N)N)NC(=O)[C@H](CCC(N)=O)NC(=O)[C@@H](NC(=O)[C@H](C)NC(=O)[C@@H]1CSSC[C@H](NC(=O)[C@@H](N)CCCCN)C(=O)N[C@@H](CC(N)=O)C(=O)N[C@@H]([C@@H](C)O)C(=O)N[C@@H](C)C(=O)N[C@@H]([C@@H](C)O)C(=O)N1)[C@@H](C)O)C(=O)N[C@@H](C)C(=O)N[C@@H](CC(N)=O)C(=O)N[C@@H](Cc1ccccc1)C(=O)N[C@@H](CC(C)C)C(=O)N[C@H](C(=O)N[C@@H](Cc1c[nH]cn1)C(=O)N[C@@H](CO)C(=O)N[C@@H](CO)C(=O)N[C@@H](CC(N)=O)C(=O)N[C@@H](CC(N)=O)C(=O)N[C@@H](CCCNC(=N)N)C(=O)N[C@@H](CCCNC(=N)N)C(=O)N[C@@H](CCCNC(=N)N)C(=O)N[C@@H](CCCNC(=N)N)C(=O)N[C@@H](CC(C)C)C(=O)N[C@@H](CO)C(=O)N[C@@H](CO)C(=O)N[C@H](C(=O)N[C@@H](CC(N)=O)C(=O)N[C@H](C(=O)NCC(=O)N[C@@H](CO)C(=O)N[C@@H](CC(N)=O)C(=O)N[C@H](C(=O)N[C@@H](Cc1ccc(O)cc1)C(N)=O)[C@@H](C)O)C(C)C)[C@@H](C)O)C(C)C [Arg-2] (H-KCNTATCATQRLANFLVHSSNNRRRRLSSTNVGSNTY-NH2; disulfide 2-7 (inferred); N-terminus assumed) |  |  | failed to fibrillize |  |  |  |  | increased with increasing concentrations |  | 8–10 fold |  |  |  | only detected amorphous aggregates with nonfibrillar morphologies; also recorded: few if any fibrils | somewhat fewer fibrils and a greater amount of short fibrils | still failed to fibrillize | did not form fibrils under any of the conditions tested; also recorded: did not form fibrils even at high concentrations of the peptide and salt | protects against cytotoxicity | A very similar effect is seen; also recorded: more effective at physiological salt concentration or higher than in the absence of salt
